These results are taken from PMC11045757, “Group 3 medulloblastoma transcriptional networks collapse under domain specific EP300/CBP inhibition” (Nature Communications, 2024).

One may read the IC50 as the concentration that gives 50% inhibition.

Each structure is given as a SMILES string. Several values for one entry are separate records, joined by “and”; a condition that tells them apart may be missing. Identical values can stand only once. Like-named read-outs stand apart in the source and are kept apart here.

Data set [1] has as its system HDMB03 (HDMBO3) group 3 medulloblastoma cells. Description: CellTiter-Glo dose-response growth assay. The format is cell-based. The settings on record: for IC50: Homo sapiens; for normalized growth (fraction of control), replicate values: HDMBO3, log10[compound]. In a few lines: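 Growth of the G3MB line HDMB03 was assessed across compound concentrations. Cells went into 384-well plates at 500 cells per well in growth medium and were exposed to compound for the indicated time. A CellTiter-Glo luminescence assay, run per manufacturer instructions and read on an Envision 2104 instrument, quantified remaining cell growth.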
In general terms: In ATP-based viability assays light output follows the ATP content of the culture.

Data set [2] concerns MB002 group 3 medulloblastoma cells. Description: CellTiter-Glo dose-response growth assay. The format is cell-based. As to conditions: for IC50: MB002, 72 h, day 3, read-out: d3 IC50 MB002; for normalized growth (fraction of control), replicate values: MB002, log10[compound]. In a few lines:
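This is a dose-response growth assay in MB002 cells, a group 3 medulloblastoma line. Cells were plated at 500 cells/well in 384-well plates containing growth media and treated with compound over a concentration series. After the noted incubation period, CellTiter-Glo reagent was applied per the manufacturer's protocol and luminescence was read on an Envision 2104 microplate reader.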

A further data set addresses T1, SMARCA4 (Homo sapiens, UniProt P51532).
T1 construct: purchased Eurofins DiscoverX (BROMOscan)
Description: BromoScan profiling (DiscoverX). As to conditions: read-out: Percent Control SMARCA4. The format is binding.

Data set [3] can be described thus: Brain tissue concentration after i.p. dosing (LC-MS/MS). The format is in vivo, female CD-1 nude mice. As to conditions: below lower limit of quantitation. As to the method: One of the most aggressive MB tumor subtypes are Group 3 medulloblastoma (G3MB), which are commonly characterized by overexpression of the driver oncogene c-MYC due to gene amplification in 17% of cases[40],[42],[43]. These tumors are associated with poor patient survival. […] We sacrificed treated mice at three timepoints after dosing (8, 16, 24 h) and perfused the murine vasculature with PBS to eliminate contaminating blood from the brain.
All animal studies were approved by the St. Jude Children’s Research Hospital Animal Care and Use Committee and performed in accordance with best practices outlined by the NIH Office of Laboratory Animal Welfare. […]
Brain samples were homogenized using a FastPrep-24 system (MP Biomedicals, Santa Ana, CA), and stored at -80 °C until analysis by qualified liquid chromatography–tandem mass spectrometry (LC-MS/MS) assay. […] Plasma and brain homogenate samples were precipitated, and extracted supernatant was analyzed on an AB Sciex ExionLC high performance liquid chromatography system via an AB Sciex ExionLC autosampler. For quantitation, a linear model (1/X^2 weighting) fit the plasma and brian homogenate calibrators across the 1 to 500 ng/mL range, with a correlation coefficient (R) of ≥0.9967. […] No matrix effects, ion enhancement or suppression, were detected in blank CD-1 mouse plasma or NSG brain homogenates.

Another data set deals with T2, FALZ (Homo sapiens, UniProt Q12830).
T2 construct: purchased Eurofins DiscoverX (BROMOscan)
Description: BromoScan profiling (DiscoverX). The format is binding. As to conditions: read-out: Percent Control FALZ.

The target of another data set is T3, BRDT(2) (Homo sapiens, UniProt Q58F21).
T3 construct: BRDT(2); purchased Eurofins DiscoverX (BROMOscan)
Description: BromoScan profiling (DiscoverX). The format is binding. The settings on record: read-out: Percent Control BRDT(2).

The next data set has as its target T4, TRIM24(PHD,Bromo.) (Homo sapiens, UniProt O15164).
T4 construct: purchased Eurofins DiscoverX (BROMOscan)
Description: BromoScan profiling (DiscoverX). The format is binding. The settings on record: read-out: Percent Control TRIM24(PHD,Bromo.).

Another data set deals with T5, BRD1 (Homo sapiens, UniProt O95696).
T5 construct: purchased Eurofins DiscoverX (BROMOscan)
T5 sequence (O95696 whole entry): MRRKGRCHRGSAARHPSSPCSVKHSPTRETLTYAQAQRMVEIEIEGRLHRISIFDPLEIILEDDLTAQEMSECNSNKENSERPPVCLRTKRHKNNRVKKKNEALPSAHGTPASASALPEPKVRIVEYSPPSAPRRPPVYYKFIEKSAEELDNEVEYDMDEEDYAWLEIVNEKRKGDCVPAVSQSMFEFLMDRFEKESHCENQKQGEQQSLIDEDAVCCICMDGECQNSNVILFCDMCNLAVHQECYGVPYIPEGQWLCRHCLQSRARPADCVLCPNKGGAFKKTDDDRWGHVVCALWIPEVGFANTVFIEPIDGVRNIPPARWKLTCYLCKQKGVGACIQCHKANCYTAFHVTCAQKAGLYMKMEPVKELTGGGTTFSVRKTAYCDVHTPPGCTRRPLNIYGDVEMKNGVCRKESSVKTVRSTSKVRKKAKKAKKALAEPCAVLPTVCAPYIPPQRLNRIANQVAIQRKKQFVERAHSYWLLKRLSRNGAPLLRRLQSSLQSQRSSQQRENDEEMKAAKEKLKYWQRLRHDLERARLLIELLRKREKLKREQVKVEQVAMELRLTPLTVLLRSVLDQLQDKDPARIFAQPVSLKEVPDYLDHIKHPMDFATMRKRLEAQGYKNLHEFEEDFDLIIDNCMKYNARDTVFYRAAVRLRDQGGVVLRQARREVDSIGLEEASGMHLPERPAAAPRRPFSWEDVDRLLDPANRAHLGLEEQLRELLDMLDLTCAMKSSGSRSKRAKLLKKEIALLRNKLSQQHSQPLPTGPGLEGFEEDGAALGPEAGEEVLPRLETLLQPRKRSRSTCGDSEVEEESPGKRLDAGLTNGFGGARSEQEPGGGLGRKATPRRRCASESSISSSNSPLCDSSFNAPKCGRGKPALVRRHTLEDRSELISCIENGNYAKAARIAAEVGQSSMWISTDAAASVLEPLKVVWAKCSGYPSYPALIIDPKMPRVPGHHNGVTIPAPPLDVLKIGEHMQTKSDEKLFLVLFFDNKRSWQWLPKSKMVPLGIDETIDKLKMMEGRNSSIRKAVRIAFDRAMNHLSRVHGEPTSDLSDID
Description: BromoScan profiling (DiscoverX). The format is binding. As to conditions: read-out: Percent Control BRD1.

Where [4] appears, read: HD-MB03, 72 h, day 3, read-out: d3 IC50 HDMBO3.

T4 sequence (O15164 824-1006 limits assumed): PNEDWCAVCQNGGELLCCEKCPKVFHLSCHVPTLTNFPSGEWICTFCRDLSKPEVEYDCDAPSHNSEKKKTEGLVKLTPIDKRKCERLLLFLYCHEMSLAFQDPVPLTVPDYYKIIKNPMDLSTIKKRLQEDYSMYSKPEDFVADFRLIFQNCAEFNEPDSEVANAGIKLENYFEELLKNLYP
T1 sequence (P51532 whole entry): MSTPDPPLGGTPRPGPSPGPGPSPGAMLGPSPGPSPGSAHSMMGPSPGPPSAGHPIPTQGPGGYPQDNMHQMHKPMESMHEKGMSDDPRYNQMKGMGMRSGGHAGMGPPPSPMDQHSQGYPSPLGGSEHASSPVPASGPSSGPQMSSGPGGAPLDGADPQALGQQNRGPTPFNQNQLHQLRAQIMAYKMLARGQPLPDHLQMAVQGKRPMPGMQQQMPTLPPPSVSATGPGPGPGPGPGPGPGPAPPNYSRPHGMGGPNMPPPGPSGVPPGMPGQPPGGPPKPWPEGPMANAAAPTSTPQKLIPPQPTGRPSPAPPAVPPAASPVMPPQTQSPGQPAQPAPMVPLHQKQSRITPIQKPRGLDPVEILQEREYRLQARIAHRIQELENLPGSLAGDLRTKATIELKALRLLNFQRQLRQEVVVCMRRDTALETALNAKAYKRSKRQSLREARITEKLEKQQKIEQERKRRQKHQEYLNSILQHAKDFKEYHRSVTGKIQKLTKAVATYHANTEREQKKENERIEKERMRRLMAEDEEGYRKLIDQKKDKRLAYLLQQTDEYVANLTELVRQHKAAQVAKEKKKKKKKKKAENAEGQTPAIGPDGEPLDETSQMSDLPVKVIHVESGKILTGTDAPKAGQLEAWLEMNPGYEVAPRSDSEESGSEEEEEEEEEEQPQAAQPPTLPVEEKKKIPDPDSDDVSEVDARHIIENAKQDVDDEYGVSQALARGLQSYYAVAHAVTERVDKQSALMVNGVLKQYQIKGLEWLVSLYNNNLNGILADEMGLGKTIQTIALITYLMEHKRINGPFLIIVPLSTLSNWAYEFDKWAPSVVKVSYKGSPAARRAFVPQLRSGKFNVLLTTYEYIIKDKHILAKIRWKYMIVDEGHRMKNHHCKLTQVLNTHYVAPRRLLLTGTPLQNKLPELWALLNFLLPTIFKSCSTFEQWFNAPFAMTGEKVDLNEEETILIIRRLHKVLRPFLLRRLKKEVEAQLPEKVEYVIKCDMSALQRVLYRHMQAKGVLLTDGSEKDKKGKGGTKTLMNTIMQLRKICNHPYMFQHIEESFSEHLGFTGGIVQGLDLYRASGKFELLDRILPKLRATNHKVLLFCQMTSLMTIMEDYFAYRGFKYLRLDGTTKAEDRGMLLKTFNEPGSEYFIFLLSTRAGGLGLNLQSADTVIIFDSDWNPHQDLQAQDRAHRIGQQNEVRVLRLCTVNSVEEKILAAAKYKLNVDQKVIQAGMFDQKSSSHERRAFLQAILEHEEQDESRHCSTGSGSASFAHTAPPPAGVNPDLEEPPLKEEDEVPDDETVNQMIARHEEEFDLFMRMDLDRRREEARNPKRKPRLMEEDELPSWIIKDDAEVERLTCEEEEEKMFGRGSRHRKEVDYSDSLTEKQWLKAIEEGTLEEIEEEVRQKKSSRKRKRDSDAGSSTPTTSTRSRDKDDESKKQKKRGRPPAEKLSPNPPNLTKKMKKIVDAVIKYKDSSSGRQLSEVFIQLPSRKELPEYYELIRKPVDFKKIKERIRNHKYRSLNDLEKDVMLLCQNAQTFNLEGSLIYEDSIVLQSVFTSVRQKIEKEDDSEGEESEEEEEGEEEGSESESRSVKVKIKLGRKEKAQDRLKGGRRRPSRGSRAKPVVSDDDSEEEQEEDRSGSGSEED

With `CNC(=O)Nc1ccc2c(c1)CCC21OC(=O)N(CC(=O)N(Cc2ccc(F)cc2)C(C)C(F)(F)F)C1=O` (stereo not drawn) [Compound A485], the half-inhibitory concentration (IC50) in data set [1] (setting [4]) came to 400 nM; in data set [2], 1970 nM.
As to `CO[C@H]1CC[C@H](n2c([C@@H]3CCCC(=O)N3c3ccc(F)c(F)c3)nc3cc(-c4c(C)noc4C)ccc32)CC1` [CCS1477], the remaining binding at 1 µM worked out at 61% on SMARCA4; 63% at FALZ; 76% at BRDT(2); 54% on TRIM24(PHD,Bromo.); 88% on BRD1. This compound displayed a brain tissue concentration in data set [3] (25 or 50 mg/kg i.p., 8, 16, 24 h) of less than 6 ng/mL. In addition, the brain concentration in data set [3] (i.p., 16 and 24 hrs) is given as less than 6 ng/mL. For the same compound, the “normalized growth (fraction of control), replicate values” (from here on “normalized growth (fraction of control)”) in data set [1] (M = -4.7) was 0.042 and 0.025 and 0.028 and 0.036 and 0.035 and 0.041 and 0.053 (2×) and 0.048 and 0.054 and 0.043 and 0.052; in data set [1] (M = -5.21), 0.044 and 0.033 (2×) and 0.034 and 0.036 and 0.027 and 0.037 and 0.05 and 0.032 and 0.029 and 0.031 and 0.04; in data set [1] (M = -5.73) it was 0.036 and 0.028 and 0.032 and 0.05 and 0.027; in data set [1] (M = -6.25), 0.073 and 0.039 (2×) and 0.064 (2×) and 0.053 and 0.055 and 0.069 and 0.061 and 0.031 and 0.047 and 0.041; in data set [1] (M = -6.76) it was 0.122 and 0.123 and 0.093 and 0.099 and 0.112 and 0.108 and 0.113 and 0.078 and 0.09 and 0.094 and 0.079 and 0.066; in data set [1] (M = -7.28), 0.344 and 0.279 and 0.281 and 0.294 and 0.307 and 0.364 and 0.263 and 0.244 and 0.257 and 0.231 and 0.199 and 0.251. Further, the “normalized growth (fraction of control)” value was 0.653 and 0.647 and 0.598 and 0.634 and 0.582 and 0.697 and 0.7 and 0.556 and 0.819 and 0.469 and 0.726 and 0.588 in data set [1] (M = -7.79); 0.976 and 1.03 and 0.907 and 0.959 and 0.846 and 0.924 and 0.949 and 0.892 and 1.092 and 1.013 and 0.868 in data set [1] (M = -8.31); 1.054 and 0.933 and 1.006 and 0.821 and 1.079 and 1.062 and 1.187 and 0.91 and 1.023 (2×) and 0.934 and 0.969 in data set [1] (M = -8.82); 0.021 and 0.012 (2×) and 0.014 and 0.011 (7×) and 0.01 (2×) and 0.007 (2×) and 0.009 (3×) in data set [2] (M = -4.7); 0.053 and 0.051 and 0.056 (2×) and 0.055 and 0.067 (4×) and 0.062 and 0.069 and 0.07 and 0.077 and 0.073 and 0.064 and 0.08 and 0.074 and 0.061 in data set [2] (M = -5.21); 0.176 and 0.2 and 0.173 (2×) and 0.221 and 0.192 and 0.209 and 0.163 and 0.174 and 0.198 and 0.167 and 0.182 and 0.161 and 0.164 and 0.153 and 0.149 and 0.147 and 0.172 in data set [2] (M = -5.73). The “normalized growth (fraction of control)” value in data set [2] (M = -6.25) is 0.427 and 0.39 and 0.435 and 0.48 and 0.521 and 0.536 and 0.339 and 0.326 and 0.323 and 0.364 and 0.327 and 0.314 and 0.325 and 0.273 (2×) and 0.287 (2×) and 0.391; in data set [2] (M = -6.76), 0.571 and 0.619 and 0.593 and 0.57 (2×) and 0.624 and 0.745 and 0.543 and 0.601 and 0.505 and 0.54 and 0.511 and 0.346 and 0.471 and 0.506 and 0.447 and 0.463 and 0.363; in data set [2] (M = -7.28), 0.767 and 0.779 and 0.746 and 0.805 and 0.733 and 1.069 and 0.749 and 0.742 and 0.816 and 0.687. Further, the IC50 was 39 nM in data set [1] (setting [4]); 82 ± 32 nM in data set [1] (HD-MB03, HDMBO3 G3MB cell growth, read-out: IC50 (nM) HDMBO3); 1280 nM in data set [2].
